Assay results reported in ChEMBL document CHEMBL4130348, “Structure-activity relationship investigation for benzonaphthyridinone derivatives as novel potent Bruton's tyrosine kinase (BTK) irreversible inhibitors” (Eur J Med Chem, 2017).

Legend:
[1] = target: Tyrosine-protein kinase Blk (Homo sapiens, UniProt P51451); assay: Inhibition of recombinant full length His-tagged human BLK expressed in baculovirus expression system using poly (4:1 Glu, Tyr) as substrate preincubated for 1 hr followed by substrate addition measured after 1 hr by ADP-glo assay
[2] = target: T1, Tyrosine-protein kinase JAK3 (Homo sapiens, UniProt P52333); assay: Inhibition of recombinant GST-tagged human JAK3 expressed in baculovirus expression system using poly (4:1 Glu, Tyr) as substrate preincubated for 1 hr followed by substrate addition measured after 1 hr by ADP-glo assay
T1 sequence (P52333 whole entry): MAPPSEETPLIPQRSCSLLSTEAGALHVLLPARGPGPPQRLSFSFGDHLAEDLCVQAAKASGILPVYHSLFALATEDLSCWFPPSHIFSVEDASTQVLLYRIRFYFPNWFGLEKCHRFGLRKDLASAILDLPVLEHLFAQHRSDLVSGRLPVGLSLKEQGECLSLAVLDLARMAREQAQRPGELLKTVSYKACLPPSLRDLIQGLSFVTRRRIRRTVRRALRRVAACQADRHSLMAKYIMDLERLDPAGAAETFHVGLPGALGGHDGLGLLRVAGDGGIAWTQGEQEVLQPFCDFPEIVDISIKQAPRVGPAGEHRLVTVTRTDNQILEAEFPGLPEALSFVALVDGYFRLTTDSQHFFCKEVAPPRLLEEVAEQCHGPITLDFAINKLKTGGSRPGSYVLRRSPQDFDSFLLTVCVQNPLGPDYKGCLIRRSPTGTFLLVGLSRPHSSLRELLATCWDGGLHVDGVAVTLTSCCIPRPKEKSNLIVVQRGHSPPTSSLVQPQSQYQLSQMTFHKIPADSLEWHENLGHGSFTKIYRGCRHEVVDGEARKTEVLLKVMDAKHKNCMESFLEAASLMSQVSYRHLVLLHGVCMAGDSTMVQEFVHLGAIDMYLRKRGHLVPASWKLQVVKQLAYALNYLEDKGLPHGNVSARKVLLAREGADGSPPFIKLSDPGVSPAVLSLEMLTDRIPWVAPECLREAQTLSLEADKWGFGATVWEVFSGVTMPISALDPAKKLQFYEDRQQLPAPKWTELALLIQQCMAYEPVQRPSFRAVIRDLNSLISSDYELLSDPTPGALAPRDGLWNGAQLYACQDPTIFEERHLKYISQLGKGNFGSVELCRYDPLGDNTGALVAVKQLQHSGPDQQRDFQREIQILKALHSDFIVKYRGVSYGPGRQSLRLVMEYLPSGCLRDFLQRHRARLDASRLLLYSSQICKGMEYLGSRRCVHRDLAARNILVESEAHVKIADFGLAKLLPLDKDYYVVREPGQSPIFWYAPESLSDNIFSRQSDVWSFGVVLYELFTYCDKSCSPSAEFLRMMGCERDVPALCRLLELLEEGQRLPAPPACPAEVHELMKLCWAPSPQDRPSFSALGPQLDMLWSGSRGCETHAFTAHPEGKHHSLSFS

[3] = target: T2, Tyrosine-protein kinase BTK (Homo sapiens, UniProt Q06187); assay: Inhibition of recombinant full length His-tagged human BTK expressed in baculovirus expression system using poly (4:1 Glu, Tyr) as substrate preincubated for 1 hr followed by substrate addition measured after 1 hr by ADP-glo assay
[4] = Antiproliferative activity against mouse BA/F3 cells after 72 hrs by CellTiter-Glo assay; format: cell-based, BaF3
[5] = target: Epidermal growth factor receptor (Homo sapiens) (UniProt P00533); assay: Inhibition of TEL-fused EGFR (unknown origin) expressed in mouse BA/F3 cells after 72 hrs by CellTiter-Glo assay; format: cell-based
[6] = system: Epidermal growth factor receptor (Homo sapiens), P00533 [L858R,T790M]; assay: Inhibition of TEL-fused EGFR T790M/L858R mutant (unknown origin) expressed in mouse BA/F3 cells after 72 hrs by CellTiter-Glo assay; format: cell-based
[7] = target: Tyrosine-protein kinase JAK1 (Homo sapiens) (UniProt P23458); assay: Inhibition of TEL-fused JAK1 (unknown origin) expressed in mouse BA/F3 cells after 72 hrs by CellTiter-Glo assay; format: cell-based
[8] = target: Tyrosine-protein kinase JAK2 (Homo sapiens) (UniProt O60674); assay: Inhibition of TEL-fused JAK2 (unknown origin) expressed in mouse BA/F3 cells after 72 hrs by CellTiter-Glo assay; format: cell-based
HCT-116 = assay: Antiproliferative activity against human HCT116 cells after 72 hrs by CellTiter-Glo assay; format: functional; settings: HCT-116, 72 h
A-431 = assay: Antiproliferative activity against human A431 cells after 72 hrs by CellTiter-Glo assay; format: functional; settings: A-431, 72 h
NCI-H460 = assay: Antiproliferative activity against human NCI-H460 cells after 72 hrs by CellTiter-Glo assay; format: functional; settings: NCI-H460, 72 h
A549 = assay: Antiproliferative activity against human A549 cells after 72 hrs by CellTiter-Glo assay; format: functional; settings: A549, 72 h
NCI-H358 = assay: Antiproliferative activity against human NCI-H358 cells after 72 hrs by CellTiter-Glo assay; format: functional; settings: NCI-H358, 72 h
NCI-H1975 = assay: Antiproliferative activity against human NCI-H1975 cells after 72 hrs by CellTiter-Glo assay; format: functional; settings: NCI-H1975, 72 h
HeLa = assay: Antiproliferative activity against human HeLa cells after 72 hrs by CellTiter-Glo assay; format: functional
DU-145 = assay: Antiproliferative activity against human DU145 cells after 72 hrs by CellTiter-Glo assay; format: functional; settings: DU-145, 72 h
[9] = Antiproliferative activity against human RV1 cells after 72 hrs by CellTiter-Glo assay; format: functional; settings: RV-1, 72 h
LNCaP C4-2 = assay: Antiproliferative activity against human C4-2 cells after 72 hrs by CellTiter-Glo assay; format: functional; settings: LNCaP C4-2, 72 h
SU-DHL-2 = assay: Antiproliferative activity against human SUDHL2 cells after 72 hrs by CellTiter-Glo assay; format: functional; settings: SU-DHL-2, 72 h
U2932 = assay: Antiproliferative activity against human U2932 cells after 72 hrs by CellTiter-Glo assay; format: functional; settings: U2932, 72 h
Pfeiffer = assay: Antiproliferative activity against human Pfeiffer cells after 72 hrs by CellTiter-Glo assay; format: functional
NAMALVA = assay: Antiproliferative activity against human NAMALWA cells after 72 hrs by CellTiter-Glo assay; format: functional
NALM-6 = assay: Antiproliferative activity against human NALM6 cells after 72 hrs by CellTiter-Glo assay; format: functional; settings: NALM-6, 72 h
U-937 = assay: Antiproliferative activity against human U937 cells after 72 hrs by CellTiter-Glo assay; format: functional; settings: U-937, 72 h
[10] = Antiproliferative activity against human PF138 cells after 72 hrs by CellTiter-Glo assay; format: functional
MOLM-13 = assay: Antiproliferative activity against human MOLM13 cells after 72 hrs by CellTiter-Glo assay; format: functional; settings: MOLM-13, 72 h
MOLM-14 = assay: Antiproliferative activity against human MOLM14 cells after 72 hrs by CellTiter-Glo assay; format: functional; settings: MOLM-14, 72 h
[11] = Antiproliferative activity against human MOLM16 cells after 72 hrs by CellTiter-Glo assay; format: functional; settings: MOLM16, 72 h
HEL = assay: Antiproliferative activity against human HEL cells after 72 hrs by CellTiter-Glo assay; format: functional
NB-4 = assay: Antiproliferative activity against human NB4 cells after 72 hrs by CellTiter-Glo assay; format: functional; settings: NB-4, 72 h
HL-60 = assay: Antiproliferative activity against human HL60 cells after 72 hrs by CellTiter-Glo assay; format: functional; settings: HL-60, 72 h
CMK = assay: Antiproliferative activity against human CMK cells after 72 hrs by CellTiter-Glo assay; format: functional
NOMO-1 = assay: Antiproliferative activity against human NOMO1 cells after 72 hrs by CellTiter-Glo assay; format: functional; settings: NOMO-1, 72 h
OCI-AML-3 = assay: Antiproliferative activity against human OCI-AML3 cells after 72 hrs by CellTiter-Glo assay; format: functional; settings: OCI-AML-3, 72 h
OCI-AML2 = assay: Antiproliferative activity against human OCI-AML2 cells after 72 hrs by CellTiter-Glo assay; format: functional; settings: OCI-AML2, 72 h
K562 = assay: Antiproliferative activity against human K562 cells after 72 hrs by CellTiter-Glo assay; format: functional; settings: K562, 72 h
Rec1 = assay: Antiproliferative activity against human Rec1 cells after 72 hrs by CellTiter-Glo assay; format: functional; settings: Rec1, 72 h
JVM-2 = assay: Antiproliferative activity against human JVM2 cells after 72 hrs by CellTiter-Glo assay; format: functional; settings: JVM-2, 72 h
Z-138 = assay: Antiproliferative activity against human Z138 cells after 72 hrs by CellTiter-Glo assay; format: functional; settings: Z-138, 72 h
[12] = target: T2, Tyrosine-protein kinase BTK; assay: Irreversible inhibition of recombinant full length His-tagged human BTK expressed in baculovirus expression system using poly (4:1 Glu, Tyr) as substrate preincubated for 2 to 60 mins followed by substrate addition measured after 1 hr by ADP-glo assay
[13] = target: T2, Tyrosine-protein kinase BTK; assay: Irreversible inhibition of recombinant full length His-tagged human BTK expressed in baculovirus expression system using poly (4:1 Glu, Tyr) as substrate assessed as ratio of Kinact to Ki preincubated for 2 to 60 mins followed by substrate addition measured after 1 hr by ADP-glo assay

T2 sequence (Q06187 whole entry): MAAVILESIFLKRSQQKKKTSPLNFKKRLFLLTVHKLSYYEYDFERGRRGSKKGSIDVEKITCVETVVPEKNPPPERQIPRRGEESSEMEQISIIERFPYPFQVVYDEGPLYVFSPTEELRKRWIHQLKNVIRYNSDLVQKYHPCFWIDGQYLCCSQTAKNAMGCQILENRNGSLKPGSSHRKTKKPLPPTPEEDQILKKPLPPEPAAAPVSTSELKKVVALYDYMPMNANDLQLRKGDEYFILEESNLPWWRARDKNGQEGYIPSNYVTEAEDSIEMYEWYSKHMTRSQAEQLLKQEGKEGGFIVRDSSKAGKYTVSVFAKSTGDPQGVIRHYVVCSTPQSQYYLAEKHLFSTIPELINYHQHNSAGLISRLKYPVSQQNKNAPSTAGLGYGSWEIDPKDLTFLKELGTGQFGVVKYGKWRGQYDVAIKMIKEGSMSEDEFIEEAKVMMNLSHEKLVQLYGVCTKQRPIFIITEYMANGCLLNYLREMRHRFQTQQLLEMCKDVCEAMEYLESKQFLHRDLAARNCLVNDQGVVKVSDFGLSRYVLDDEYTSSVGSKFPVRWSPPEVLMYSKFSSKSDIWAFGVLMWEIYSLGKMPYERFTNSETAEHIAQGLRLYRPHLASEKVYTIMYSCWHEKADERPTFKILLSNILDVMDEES
Sequence of Tyrosine-protein kinase Blk (P51451 whole entry): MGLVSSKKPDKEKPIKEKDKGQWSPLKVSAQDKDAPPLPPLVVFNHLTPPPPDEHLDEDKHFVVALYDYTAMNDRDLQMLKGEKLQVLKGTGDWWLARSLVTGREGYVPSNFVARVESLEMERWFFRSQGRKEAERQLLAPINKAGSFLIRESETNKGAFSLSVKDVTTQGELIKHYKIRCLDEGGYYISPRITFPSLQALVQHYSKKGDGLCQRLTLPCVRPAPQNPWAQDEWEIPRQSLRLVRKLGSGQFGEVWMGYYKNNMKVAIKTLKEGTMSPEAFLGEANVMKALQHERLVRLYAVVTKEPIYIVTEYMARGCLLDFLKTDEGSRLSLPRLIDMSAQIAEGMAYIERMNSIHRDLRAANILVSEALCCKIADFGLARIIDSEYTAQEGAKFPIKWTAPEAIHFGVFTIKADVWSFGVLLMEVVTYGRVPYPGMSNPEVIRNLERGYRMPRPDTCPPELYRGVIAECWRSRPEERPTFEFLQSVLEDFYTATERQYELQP
Sequence of Epidermal growth factor receptor (Homo sapiens), P00533 [L858R,T790M] (P00533 whole entry T790M/L858R, looked up, the tested form may be a part): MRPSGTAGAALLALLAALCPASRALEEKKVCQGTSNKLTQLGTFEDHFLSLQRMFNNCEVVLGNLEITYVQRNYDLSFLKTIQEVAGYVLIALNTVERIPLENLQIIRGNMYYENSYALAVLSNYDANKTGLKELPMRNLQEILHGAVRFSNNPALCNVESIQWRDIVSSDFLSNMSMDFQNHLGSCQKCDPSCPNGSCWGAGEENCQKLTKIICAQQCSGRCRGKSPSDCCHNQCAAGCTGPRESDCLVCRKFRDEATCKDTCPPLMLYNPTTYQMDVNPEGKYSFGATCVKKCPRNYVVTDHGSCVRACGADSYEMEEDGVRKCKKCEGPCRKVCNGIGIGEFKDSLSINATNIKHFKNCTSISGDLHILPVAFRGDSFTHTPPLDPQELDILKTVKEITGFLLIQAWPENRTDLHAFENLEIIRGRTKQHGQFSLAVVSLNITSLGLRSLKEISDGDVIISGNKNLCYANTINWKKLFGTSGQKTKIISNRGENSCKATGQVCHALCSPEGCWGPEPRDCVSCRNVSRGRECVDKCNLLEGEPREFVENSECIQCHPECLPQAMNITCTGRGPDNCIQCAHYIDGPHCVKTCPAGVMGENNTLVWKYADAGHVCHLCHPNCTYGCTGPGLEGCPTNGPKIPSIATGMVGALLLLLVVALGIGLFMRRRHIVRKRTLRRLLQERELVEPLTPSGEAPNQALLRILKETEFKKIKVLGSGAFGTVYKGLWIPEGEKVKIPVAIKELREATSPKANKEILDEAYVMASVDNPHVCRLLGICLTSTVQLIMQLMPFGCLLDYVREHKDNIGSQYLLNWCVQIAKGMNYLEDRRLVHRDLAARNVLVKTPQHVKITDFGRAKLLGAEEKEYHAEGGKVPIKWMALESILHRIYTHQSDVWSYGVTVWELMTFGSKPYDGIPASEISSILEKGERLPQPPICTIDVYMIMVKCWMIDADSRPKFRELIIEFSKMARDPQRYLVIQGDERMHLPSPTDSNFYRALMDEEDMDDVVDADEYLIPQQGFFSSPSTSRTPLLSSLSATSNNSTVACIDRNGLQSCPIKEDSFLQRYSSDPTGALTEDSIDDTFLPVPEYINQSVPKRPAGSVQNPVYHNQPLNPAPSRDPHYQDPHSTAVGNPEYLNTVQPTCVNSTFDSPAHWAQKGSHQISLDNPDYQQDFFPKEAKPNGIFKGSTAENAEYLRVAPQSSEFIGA
Sequence of Tyrosine-protein kinase JAK1 (Homo sapiens) (P23458 whole entry, the tested form may be a part): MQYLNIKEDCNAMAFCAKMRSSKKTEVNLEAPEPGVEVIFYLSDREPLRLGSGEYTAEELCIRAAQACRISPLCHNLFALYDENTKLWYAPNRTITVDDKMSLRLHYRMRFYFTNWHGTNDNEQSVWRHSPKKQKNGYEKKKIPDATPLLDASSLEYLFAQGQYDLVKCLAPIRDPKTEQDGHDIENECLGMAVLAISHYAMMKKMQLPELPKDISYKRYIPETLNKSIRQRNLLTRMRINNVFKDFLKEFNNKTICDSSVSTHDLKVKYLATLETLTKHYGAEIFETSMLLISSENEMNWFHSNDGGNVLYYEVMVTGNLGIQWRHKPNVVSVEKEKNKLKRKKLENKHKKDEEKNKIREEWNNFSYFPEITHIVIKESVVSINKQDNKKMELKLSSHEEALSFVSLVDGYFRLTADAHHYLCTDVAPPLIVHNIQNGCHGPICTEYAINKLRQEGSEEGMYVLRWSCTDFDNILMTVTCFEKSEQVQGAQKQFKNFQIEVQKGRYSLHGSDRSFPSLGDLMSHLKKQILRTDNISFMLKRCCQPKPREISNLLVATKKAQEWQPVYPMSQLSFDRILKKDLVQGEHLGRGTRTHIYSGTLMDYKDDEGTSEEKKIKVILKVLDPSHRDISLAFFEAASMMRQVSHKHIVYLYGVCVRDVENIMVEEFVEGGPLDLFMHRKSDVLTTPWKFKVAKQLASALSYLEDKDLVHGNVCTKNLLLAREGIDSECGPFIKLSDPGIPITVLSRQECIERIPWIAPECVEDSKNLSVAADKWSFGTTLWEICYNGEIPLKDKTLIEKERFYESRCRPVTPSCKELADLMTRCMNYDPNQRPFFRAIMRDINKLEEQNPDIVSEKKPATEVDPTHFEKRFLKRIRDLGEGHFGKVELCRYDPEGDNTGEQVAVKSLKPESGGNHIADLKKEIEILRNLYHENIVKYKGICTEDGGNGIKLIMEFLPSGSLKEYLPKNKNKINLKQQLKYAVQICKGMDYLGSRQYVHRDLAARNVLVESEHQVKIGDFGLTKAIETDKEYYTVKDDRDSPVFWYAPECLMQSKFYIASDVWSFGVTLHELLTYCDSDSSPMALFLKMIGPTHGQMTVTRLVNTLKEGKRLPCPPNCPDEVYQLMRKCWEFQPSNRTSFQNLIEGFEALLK
Sequence of Tyrosine-protein kinase JAK2 (Homo sapiens) (O60674 whole entry, the tested form may be a part): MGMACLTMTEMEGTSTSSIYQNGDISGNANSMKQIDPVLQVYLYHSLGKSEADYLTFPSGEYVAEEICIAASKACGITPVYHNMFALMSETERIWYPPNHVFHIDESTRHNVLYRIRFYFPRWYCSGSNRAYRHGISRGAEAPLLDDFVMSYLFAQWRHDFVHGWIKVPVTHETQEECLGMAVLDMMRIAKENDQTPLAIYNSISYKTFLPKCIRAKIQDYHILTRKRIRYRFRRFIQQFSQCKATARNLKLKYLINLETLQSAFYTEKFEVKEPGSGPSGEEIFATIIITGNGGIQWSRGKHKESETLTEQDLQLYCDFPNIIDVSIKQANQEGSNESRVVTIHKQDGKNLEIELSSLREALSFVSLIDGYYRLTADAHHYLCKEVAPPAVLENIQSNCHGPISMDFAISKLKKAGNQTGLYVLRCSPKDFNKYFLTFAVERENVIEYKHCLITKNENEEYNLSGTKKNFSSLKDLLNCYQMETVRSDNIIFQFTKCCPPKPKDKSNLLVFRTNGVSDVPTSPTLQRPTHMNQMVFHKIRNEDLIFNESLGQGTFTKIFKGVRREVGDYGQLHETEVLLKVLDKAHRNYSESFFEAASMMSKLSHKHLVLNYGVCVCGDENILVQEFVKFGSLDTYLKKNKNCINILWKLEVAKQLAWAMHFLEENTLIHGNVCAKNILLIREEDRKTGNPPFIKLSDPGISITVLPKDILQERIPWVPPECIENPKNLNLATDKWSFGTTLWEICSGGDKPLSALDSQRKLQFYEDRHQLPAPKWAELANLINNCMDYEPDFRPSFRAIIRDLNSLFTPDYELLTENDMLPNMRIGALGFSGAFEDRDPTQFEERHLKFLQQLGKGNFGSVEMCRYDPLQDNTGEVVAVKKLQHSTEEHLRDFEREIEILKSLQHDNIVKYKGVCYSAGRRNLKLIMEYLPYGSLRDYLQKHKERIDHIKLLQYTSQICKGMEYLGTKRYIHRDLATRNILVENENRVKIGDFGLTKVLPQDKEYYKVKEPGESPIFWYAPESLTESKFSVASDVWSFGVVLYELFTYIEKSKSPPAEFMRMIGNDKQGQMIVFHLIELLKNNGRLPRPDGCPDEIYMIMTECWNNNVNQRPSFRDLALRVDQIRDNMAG

C=CC(=O)Nc1cc(-n2c(=O)ccc3cnc4ccc(/C=C/c5ccccc5)cc4c32)ccc1C
IC50 [1]: 0.607 µM | IC50 [2]: 5.58 µM

C=CC(=O)Nc1cc(-n2c(=O)ccc3cnc4ccc(-c5ccc(NC(=O)NC)cc5)cc4c32)ccc1C
IC50 [3]: 0.0791 µM | IC50 [1]: 1.13 µM | IC50 [2]: 0.218 µM

C=CC(=O)Nc1cc(-n2c(=O)ccc3cnc4ccc(-c5ccsc5)cc4c32)ccc1C
IC50 [1]: 0.342 µM | IC50 [2]: 0.0386 µM

C=CC(=O)N1CCC[C@@H](n2nc(-c3ccc(Oc4ccccc4)cc3)c3c(N)ncnc32)C1 [IBRUTINIB]
GI50 at 72 h [4]: > 10 µM | GI50 [5]: > 10 µM | GI50 [6]: 2.76 µM | GI50 [7]: 8.93 µM | GI50 [8]: 9.02 µM | GI50 (HCT-116): > 10 µM | GI50 (A-431): > 10 µM | GI50 (NCI-H460): > 10 µM | GI50 (A549): > 10 µM | GI50 (NCI-H358): > 10 µM | GI50 (NCI-H1975): 1.2 µM | GI50 (HeLa): > 10 µM | GI50 (DU-145): > 10 µM | GI50 [9]: > 10 µM | GI50 (LNCaP C4-2): > 10 µM | GI50 (SU-DHL-2): 2.2 µM | GI50 (U2932): 4 µM | GI50 (Pfeiffer): 8.4 µM | GI50 (NAMALVA): 6 µM | GI50 (NALM-6): > 10 µM | GI50 (U-937): 8.5 µM | GI50 [10]: 8.2 µM | GI50 (MOLM-13): 1.3 µM | GI50 (MOLM-14): 1.8 µM | GI50 [11]: 4.4 µM | GI50 (HEL): 4 µM | GI50 (NB-4): 7.5 µM | GI50 (HL-60): 3.5 µM | GI50 (CMK): > 10 µM | GI50 (NOMO-1): > 10 µM | GI50 (OCI-AML-3): > 10 µM | GI50 (OCI-AML2): > 10 µM | GI50 (K562): > 10 µM | GI50 (Rec1): > 10 µM | GI50 (JVM-2): > 10 µM | GI50 (Z-138): > 10 µM

C=CC(=O)N1CCc2ccc(-n3c(=O)ccc4cnc5ccc(-c6ccc(N7CCN(C)CC7)cc6)cc5c43)cc21
IC50 [1]: > 10 µM | IC50 [2]: 1.56 µM

C=CC(=O)Nc1cccc(-n2c(=O)ccc3cnc4ccc(-c5cn[nH]c5)cc4c32)c1
IC50 [1]: 0.293 µM | IC50 [2]: 0.224 µM

C=CC(=O)Nc1cc(-n2c(=O)ccc3cnc4ccc(-c5ccc(COc6cccc(C(F)(F)F)c6)cc5)cc4c32)ccc1C
IC50 [1]: 2.06 µM | IC50 [2]: 0.65 µM

C=CC(=O)N1CCc2ccc(-n3c(=O)ccc4cnc5ccc(-c6cnc7ccccc7c6)cc5c43)cc21
IC50 [3]: 0.00715 µM | IC50 [1]: 0.191 µM | IC50 [2]: 0.983 µM

C=CC(=O)Nc1cc(-n2c(=O)ccc3cnc4ccc(-c5ccoc5)cc4c32)ccc1C
IC50 [1]: 2.09 µM | IC50 [2]: 0.0174 µM

C=CC(=O)Nc1cc(-n2c(=O)ccc3cnc4ccc(-c5cnn(C)c5)cc4c32)ccc1C
IC50 [1]: 0.339 µM | IC50 [2]: 0.343 µM

C=CC(=O)Nc1cc(-n2c(=O)ccc3cnc4ccc(-c5cn[nH]c5)cc4c32)ccc1C
Ki [12]: 0.002 µM | Kinact [12]: 0.14 min⁻¹ | Ratio [13]: 1.17 µM⁻¹ s⁻¹

C=CC(=O)Nc1cccc(-n2c(=O)ccc3cnc4ccc(-c5ccc(N)nc5)cc4c32)c1
IC50 [1]: 0.336 µM | IC50 [2]: 0.654 µM

C=CC(=O)Nc1cc(-n2c(=O)ccc3cnc4ccc(-c5ccc(N)nc5)cc4c32)ccc1C
IC50 [1]: 0.177 µM | IC50 [2]: 0.177 µM

C=CC(=O)Nc1cc(-n2c(=O)ccc3cnc4ccc(-c5ccccc5)cc4c32)ccc1C
IC50 [2]: 0.0253 µM

C=CC(=O)Nc1cc(-n2c(=O)ccc3cnc4ccc(-c5ccc6c(c5)OCCO6)cc4c32)ccc1C
IC50 [1]: 0.16 µM | IC50 [2]: 0.192 µM

C=CC(=O)N1CCc2ccc(-n3c(=O)ccc4cnc5ccc(-c6ccc(S(=O)(=O)NC(C)(C)C)cc6)cc5c43)cc21
IC50 [1]: 0.0836 µM | IC50 [2]: > 10 µM

C=CC(=O)Nc1cc(-n2c(=O)ccc3cnc4ccc(-c5cnc6ccccc6c5)cc4c32)ccc1C
IC50 [1]: 0.295 µM | IC50 [2]: 0.983 µM
